Read-outs that look alike come from different tables or passages of the source.
Key:
[1] = system: Truncated N-terminal huntington 150 Q-EGFP-Neuron 2a cells; experiment: Measurement of x-Fold (polyglutamine aggregation inhibitory activity); assay type: cell-based
Protocol: In the present invention, the polyglutamine aggregation inhibitory activity (x-Fold) can be measured, for example, by the method described in the Example.
The number of the aggregated cells, and the total number of cells were counted by Array Scan V T1 (manufactured by Cellomics, Pittuburg, USA), and the ratio of the aggregated cells to the total number of cells was determined (x-Fold). […]

[2] = system: SOC (store operated calcium channel); experiment: Measurement of SOC IC50 (thapsigargin store depletion, calcium re-addition, CHO cells); assay type: cell-based; conditions: read-out: SOC IC50
Protocol: The SOC (store operated calcium channel)-suppressive action can be measured by the method described in the Example and using, for example, FDSS 3000.
CHO cell culture medium was replaced with a BSS solution which is an extracellular fluidfree of calcium, the compound of the present invention was added 1 min later, and 1 μM thapsigargin was allowed to act thereon 2 min later to deplete intracellular calcium store. […]

transglutaminase (TGase) = experiment: Measurement of TG (TGase inhibitory activity, monodansyl cadaverine / N,N-dimethylcasein fluorescence, FDSS 3000); assay type: biochemical
Procedure, shortened: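 Compound (1 μL of 10 mM stock) added to 0.1 mL reaction: 100 mM HEPES-NaOH pH 7.5, 1 mM CaCl2, 20 μM monodansyl cadaverine, 0.05 mg/mL N,N-dimethylcasein, 5 μg/mL TGase. Rate of fluorescence change at 340 nm measured; DMSO control set to 100; TG50 is the concentration halving activity.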

[3] = polyglutamine aggregation inhibitory activity, Table 1
[4] = ratio of aggregated cells to total number of cells, compound 20 μM, 20 hr, almost 1 without compound, smaller = stronger inhibition
[5] = CHO cells, 1 μM thapsigargin, 2 mM calcium chloride
[6] = TGase activity with compound (10 mM, 1 μL in 0.1 ml enzyme reaction solution), DMSO control taken as 100
[7] = TGase inhibitory activity value, Table 1
[8] = Cricetulus griseus, CHO, CHO cells, 1 μM thapsigargin, 2 mM calcium chloride
[9] = Cricetulus griseus, CHO, Table 1

Structure (SMILES) | IC50 [2, 5] | TGase activity remaining (% of DMSO control = 100) (transglutaminase (TGase); [6]) | TGase activity remaining (% of DMSO control = 100) (transglutaminase (TGase); [7]) | IC50 [2, 8] | IC50 [2, 9] | TGase activity remaining (% of DMSO control = 100) (transglutaminase (TGase); TGase inhibitory activity value, Table 1, listed as 4143) | x-Fold [1, 3] | x-Fold [1, 4] | x-Fold ([1]; polyglutamine aggregation inhibitory activity, Table 1, listed as 4143)
NCCSB(c1ccccc1)c1ccc(-c2ccc(B(SCCN)c3ccccc3)cc2)cc1 [Example 9, 4,4′(phenyl-2-aminoethylthioboryl)diphenyl] | 500 nM | 12 | 12 |  |  |  | 0.87 | 0.87 | 
CC(C)(C)B(O)c1ccccc1 [Example 109, tertiary-butyl phenyl borinic acid] |  | 108 | 108 | > 10000 nM | > 10000 nM |  | 1.02 | 1.02 | 
CCC(C)B(OCCN)c1ccccc1 (centres unmarked) [Example 110, aminoethyl secondary-butyl phenylborinate] |  | 115 | 115 | > 10000 nM | > 10000 nM |  | 1.02 | 1.02 | 
OCCCCB(O)c1ccccc1 [Example 114, 4-hydroxybutylphenylborinic acid] |  | 120 | 120 | 2000 nM | 2000 nM |  | 0.99 | 0.99 | 
NCCOB(c1ccccc1)c1ccc(B(OCCN)c2ccccc2)cc1 [Example 118, 1,4-bis(phenyl-2-aminoethoxyboryl)benzene] |  | 93 | 93 | 2000 nM | 2000 nM |  | 0.97 | 0.97 | 
OB(c1ccccc1)c1cccc(B(O)c2ccccc2)c1 [Example 119, 1,3-bis(phenylhydroxyboryl)benzene] |  | 101 |  | > 20000 nM |  |  |  | 0.84 | 
N=C(N)NCCCC(N)C(=O)OB(c1ccccc1)c1ccccc1 (centres unmarked) [Example 122, diphenyl(argininate-O,N)borane] |  | 93 | 93 | 7000 nM | 7000 nM |  | 0.98 | 0.98 | 
OB(c1ccccc1)c1ccc(COCc2ccc(B(O)c3ccccc3)cc2)cc1 [Example 137, bis((4,4′-phenylhydroxyboryl)benzyl)ether] | 300 nM | 14 |  |  |  |  |  | 0.99 | 
OB(c1ccccc1)c1cccc(B(O)c2ccccc2)c1 [Example 147, 1,3-bis(phenylhydroxyboryl)benzene] | 20000 nM | 101 |  |  |  |  |  | 0.87 | 
NC(=O)CC(N)C(=O)OB(c1ccc(COCc2ccc(B(OC(=O)C(N)CC(N)=O)c3ccc(C(F)(F)F)cc3)cc2)cc1)c1ccc(C(F)(F)F)cc1 (centres unmarked) [Example 185, bis(4,4′-(p-trifluoromethylphenyl-asparagineboryl)benzyl)ether] | > 20000 nM | 130 |  |  |  |  |  | 0.94 | 
NCCOB(c1ccc(Cl)c(F)c1)c1ccc(Cl)c(F)c1 [Example 234, di(4-chloro-3-fluoro-phenyl) 2-aminoethylborinate] |  | 98 |  | 500 nM | 500 nM | 98 |  | 1.07 | 1.07
Cc1ccc(Cl)cc1B(OCCN)c1cc(Cl)ccc1C [Example 244, di(5-chloro-2-methylphenyl) 2-aminoethylborinate] |  | 74 |  | 1000 nM |  |  |  | 0.76 | 

Second part, led by results:

IC50 [2, 5] | TGase activity remaining (% of DMSO control = 100) (transglutaminase (TGase); [6]) | TGase activity remaining (% of DMSO control = 100) (transglutaminase (TGase); [7]) | IC50 [2, 8] | IC50 [2, 9] | TGase activity remaining (% of DMSO control = 100) (transglutaminase (TGase); TGase inhibitory activity value, Table 1, listed as 4143) | Structure (SMILES) | x-Fold [1, 3] | x-Fold [1, 4] | x-Fold ([1]; polyglutamine aggregation inhibitory activity, Table 1, listed as 4143)
 | 12 | 12 | 1000 nM | 1000 nM |  | Cc1ccc(B(SCCN)c2ccc(C)c(Cl)c2)cc1Cl [Example 32, di(3-chloro-4-methylphenyl)-2-aminoethylthioborane] | 1.02 | 1.02 | 
 | 51 | 51 | 1000 nM | 1000 nM |  | Cc1ccc(B(OC(=O)C(N)CN)c2ccc(C)c(Cl)c2)cc1Cl (centres unmarked) [Example 71, di(3-chloro-4-methylphenyl)(2,3-diaminopropionate-O,N)borane] | 0.97 | 0.97 | 
 | 41 | 41 | 500 nM | 500 nM |  | Cc1ccc(B(OCCN2CCNCC2)c2ccc(C)c(Cl)c2)cc1Cl [Example 72, di(3-chloro-4-methylphenyl)piperazinoethoxyborane] | 1.02 | 1.02 | 
 | 35 | 35 | 1200 nM | 1200 nM |  | Cc1ccc(B(OCCN2CCCCC2)c2ccc(C)c(Cl)c2)cc1Cl [Example 73, di(3-chloro-4-methylphenyl)piperidinoethoxyborane] | 0.85 | 0.85 | 
 | 27 | 27 | 2000 nM | 2000 nM |  | CCCCNCCOB(c1ccc(C)c(Cl)c1)c1ccc(C)c(Cl)c1 [Example 210, di(3-chloro-4-methylphenyl)butylaminoethyl borinate] | 0.98 | 0.98 | 
 | 86 | 86 | 1000 nM | 1000 nM |  | Cc1ccc(B(OCCNCc2ccccc2)c2ccc(C)c(Cl)c2)cc1Cl [Example 211, di(3-chloro-4-methylphenyl)benzylaminoethyl borinate] | 0.99 | 0.99 | 
 | −7 | −7 | 2000 nM | 2000 nM |  | Cc1ccc(B(OCC(N)c2ccccc2)c2ccc(C)c(Cl)c2)cc1Cl (centres unmarked) [Example 214] | 0.90 | 0.90 | 
 | 26 | 26 | 500 nM | 500 nM |  | Cc1ccc(B(Oc2ccccc2N)c2ccc(C)c(Cl)c2)cc1Cl [Example 220, di(3-chloro-4-methylphenyl) 2-aminophenylborinate] | 0.50 | 0.50 | 
 | 109 | 109 | 500 nM | 500 nM |  | Cc1ccc(B(OC(c2ccccc2)C(N)c2ccccc2)c2ccc(C)c(Cl)c2)cc1Cl (centres unmarked) [Example 225] | 1.03 | 1.03 | 
 | 40 | 40 | 500 nM | 500 nM |  | CCC(N)COB(c1ccc(C)c(Cl)c1)c1ccc(C)c(Cl)c1 (centres unmarked) [Example 229, di(3-chloro-4-methylphenyl) 2-aminobutylborinate] | 1.09 | 1.09 | 
 | 99 |  | 700 nM |  |  | Cc1ccc(B(OCC2CCCCN2)c2ccc(C)c(Cl)c2)cc1Cl (centres unmarked) [Example 247, di(3-chloro-4-methylphenyl) 2-piperidinomethylborinate] |  | 0.91 | 

— US8853424B2 (Japan Science and Technology Agency, priority 2008, dated 2014)
